pIC50: −log10 of the molar value.
Each compound was assayed on IL-2 secretion by human effector memory T cells (TEM) (assay: Effector memory T cells IL-2 release assay). Conditions: T-cell; human CD4+ effector memory T cells, CD3/CD28 bead stimulation, 24 h; read-out: CD4TC IL2 IC50.
Format: cell-based
Method: Effector Memory T Cells IL-2 Release Assay
Test compound-mediated inhibition of NFκB signalling in T cells was assessed by quantification of the IL-2 secretion by human effector memory T cells (TEM) upon treatment and stimulation. Human TEM cells were isolated from buffy coats of healthy donors obtained from the French blood bank. First, peripheral blood mononuclear cells (PBMC) were purified from buffy coats diluted 1:1 with DPBS (Gibco, cat #14190-094) by Pancoll (PAN BIOTECH, cat #P04-60500) density gradient centrifugation at 400×g for 20 minutes. TEM cells were further enriched by negative immuno-magnetic cell sorting using a human CD4+ Effector Memory T Cell Isolation Kit (Miltenyi, cat #130-094-125) according to the manufacturer's instructions. Aliquots of 3×10E6 purified TEM cells were kept frozen in Cryo-SFM medium (PromoCell, cat #C-29912) in gas phase nitrogen until used. Cell purity was verified by flow cytometry analysis of 200 000 PFA-fixed cells previously labelled with monoclonal antibodies anti-CD4-PerCP-Cy5.5 (BD Pharmigen, cat #332772), anti-CD8-V500 (BD Biosciences, cat #561617), anti-CD14-Pacific Blue (Biolegend, cat #325616), anti-CD45 RA-FITC (Biolegend, cat #304106) and anti-CCR7-APC (in CD4+ Effector Memory T Cell Isolation Kit, Miltenyi, cat #130-094-125).
TEM cells were resuspended in complete RPMI medium composed of: RPMI 1640 (Gibco, cat #31870-025), 10% heat inactivated fetal bovine serum (Sigma, cat #F7524), 2 mM GlutaMAX (Gibco, cat #35050-038), 1 mM sodium pyruvate 100× (Gibco, cat #11360-039), 1% MEM non-essential amino acids solution (Gibco, cat #11140-035) and 100 U/mL penicillin, 100 μg/mL streptomycin (Sigma-Aldrich, cat #11074440001). 5,000 cells per well were plated onto flat clear bottom 384 well plates (Corning, cat #3770). 5,000 Dynabeads Human T-Activator CD3/CD28 (Gibco, cat #11132D) were added to each well for cell stimulation. Finally, 10 doses of test compound, originally prepared in DMSO by serial semi-log step dilution, were also added to cells in triplicate wells. Final DMSO concentration in wells was 0.1% in a total volume of 100 μL complete medium. Plates were incubated for 24 h at 37° C. in 5% CO2 atmosphere. After incubation, cell suspensions were centrifuged at 400×g and culture supernatants were recovered and stored at −80° C. Cell viability was assessed by flow cytometry after staining the cells with Fixable Viability Dye eFluor 780 (Invitrogen, cat #65-0865-14). IL-2 levels were determined in cell supernatants using an HTRF human IL-2 detection kit (Cisbio, cat #62HIL02PEH). IL-2 data at the different compound doses were fitted to a 4-parameter logistic curve to determine IC50 values, corresponding to the compound concentration leading to 50% reduction of the maximal IL-2 levels observed in each experiment. Viability data were analysed similarly to exclude cytotoxicity as a cause of IL-2 decrease (see Table 1).

Row | Compound | pIC50
1 | CN(C(=O)C1CCS(=O)(=O)CC1)[C@@H](c1ccc(N2CCC3(CC3)c3c2cnc2cc(Cl)nn32)nc1)C(F)(F)F [CPD0021660, N-[(1S)-1-(6-{4′-chloro-2′,3′,7′,10′-tetraazaspiro[cyclopropane-1,13′-tricyclo[7.4.0.0^2,6]tridecane]-1′(9′),3′,5′,7′-tetraen-10′-yl}pyridin-3-yl)-2,2,2-trifluoroethyl]-N-methyl-1,1-dioxo-1λ^6-thiane-4-carboxamide] | 6.95
2 | COc1ccc2ncc(Nc3ccc([C@H](N(C)C(=O)C4CCS(=O)(=O)CC4)C(F)(F)F)cc3)c(C3(OC)COC3)c2n1 [CPD0076414, N-methyl-1,1-dioxo-N-[(1S)-2,2,2-trifluoro-1-[4-[6-methoxy-4-(3-methoxyoxetan-3-yl)-1,5-naphthyridin-3-yllamino]phenyl]ethyl]thiane-4-carboxamide] | 6.57
3 | COc1ccc2ncc(Nc3ccc([C@H](N(C)C(=O)[C@H]4CC[S@@+]([O-])CC4)C(F)(F)F)cc3)c([C@H](C)OC)c2n1 (relative stereo) [CPD0072935, (1rel-s,4rel-s)-N-methyl-1-oxo-N-[(1S)-2,2,2-trifluoro-1-[4-({6-methoxy-4-[(1 rel-S)-1-methoxyethyl]-1,5-naphthyridin-3-yl}amino)phenyl]ethyl]-1λ^4-thiane-4-carboxamide] | 7.47
4 | CN(C(=O)[C@H]1CC[S@@](=N)(=O)CC1)[C@@H](c1ccc(N2CC(C)(C)Cc3c2cnc2cc(Cl)nn32)cc1)C(F)(F)F [CPD0073498, (1rel s, 4rel s)-N-[(1S)-1-(4-{4-chloro-12,12-dimethyl-2,3,7,10-tetraazatricyclo[7.4.0.0^2,6]trideca-1(9),3,5,7-tetraen-10-yl}phenyl)-2,2,2-trifluoroethyl]-1-imino-N-methyl-1-oxo-1λ^6-thiane-4-carboxamide] | 6.79
5 | COC[C@@]1(C)CCN(c2ccc([C@H](N(C)C(=O)C3CCS(=O)(=O)CC3)C(F)(F)F)cc2)c2cnc3cc(Cl)nn3c21 [CPD0073139, N-[(1S)-1-[4-[(13rel-S)-4-chloro-13-(methoxymethyl)-13-methyl-2,3,7,10-tetrazatricyclo[7.4.0.0^2,6]trideca-1(9),3,5,7-tetraen-10-yl]phenyl]-2,2,2-trifluoro-ethyl]-N-methyl-1,1-dioxo-1λ^6-thiane-4-carboxamide] | 7.19
6 | CN(C(=O)[C@H]1C[C@@H]([S@@+](C)(=N)[O-])C1)[C@@H](c1ccc(N2CCCc3c2cnc2cc(Cl)nn32)cc1)C(F)(F)F [CPD0073223, (1R,3s)-N-[(1S)-1-(4-{4-chloro-2,3,7,10-tetraazatricyclo[7.4.0.0^2,6]trideca-1(9),3,5,7-tetraen-10-yl}phenyl)-2,2,2-trifluoroethyl]-3-[(S)-imino(methyl)oxo-λ^6-sulfanyl]-N-methylcyclobutane-1-carboxamide] | 6.76
7 | COC[C@H]1CCN(c2ccc([C@H](N(C)C(=O)C3CCS(=O)(=O)CC3)C(F)(F)F)cc2)c2cnc3cc(Cl)nn3c21 [CPD0073504, N-[(1S)-1-[4-[(13rel-S)-4-chloro-13-(methoxymethyl)-2,3,7,10-tetrazatricyclo[7.4.0.0^2,6]trideca-1(9),3,5,7-tetraen-10-yl]phenyl]-2,2,2-trifluoro-ethyl]-N-methyl-1,1-dioxo-1λ^6-thiane-4-carboxamide] | 7.06
8 | C[C@H]1CCN(c2ccc([C@H](N(C)C(=O)[C@H]3CC[S@](=N)(=O)CC3)C(F)(F)F)cc2)c2cnc3cc(F)nn3c21 (relative stereo) [CPD0074553, (1rel s, 4rel s)1-imino-N-methyl-1-oxo-N-[(1S)-2,2,2-trifluoro-1-[4-[(13 rel S)-4-fluoro-13-methyl-2,3,7,10-tetrazatricyclo[7.4.0.0^2,6]trideca-1(9),3,5,7-tetraen-10-yl]phenyl]ethyl]thiane-4-carboxamide] | 6.79
9 | COc1ccc2ncc(Nc3ccc([C@H](N(C)C(=O)C4CCS(=O)(=O)CC4)C(F)(F)F)cn3)c([C@@H](C)OC)c2n1 (relative stereo) [CPD0019006, N-methyl-1,1-dioxo-N-[(1S)-2,2,2-trifluoro-1-[6-({6-methoxy-4-[(1 rel S)-1-methoxyethyl]-1,5-naphthyridin-3-yl}amino)pyridin-3-yl]ethyl]-1λ^6-thiane-4-carboxamide] | 6.74
10 | CN(C(=O)C1CCS(=O)(=O)CC1)[C@@H](c1ccc(N2CC3(CC3)Cc3c2cnc2cc(Cl)nn32)cc1)C(F)(F)F [CPD0022148, N-[(1S)-1-(4-{4′-chloro-2′,3′,7′,10′-tetraazaspiro[cyclopropane-1,12′-tricyclo[7.4.0.0^2,6]tridecane]-1′(9′),3′,5′,7′-tetraen-10′-yl}phenyl)-2,2,2-trifluoroethyl]-N-methyl-1,1-dioxo-1λ^6-thiane-4-carboxamide] | 6.94
11 | COc1ccc2ncc(Nc3ccc([C@H](N(C)C(=O)C4CCS(=O)(=O)CC4)C(F)(F)F)cc3)c([C@H](C)OC)c2n1 (relative stereo) [CPD0019170, N-methyl-1,1-dioxo-N-[(1S)-2,2,2-trifluoro-1-[4-({6-methoxy-4-[(1 rel S)-1-methoxyethyl]-1,5-naphthyridin-3-yl}amino)phenyl]ethyl]-1λ^6-thiane-4-carboxamide] | 7.70
12 | COc1ccc2ncc(Nc3ccc([C@H](N(C)C(=O)[C@H]4CC[S@+]([O-])CC4)C(F)(F)F)cc3)c([C@H](C)OC)c2n1 (relative stereo) [CPD0072936, (1rel-r,4rel-r)-N-methyl-1-oxo-N-[(1S)-2,2,2-trifluoro-1-[4-({6-methoxy-4-[(1 rel-S)-1-methoxyethyl]-1,5-naphthyridin-3-yl}amino)phenyl]ethyl]-1λ^4-thiane-4-carboxamide] | 7.77
13 | COc1ccc2ncc(Nc3ccc([C@H](N(C)C(=O)C4CCS(=O)(=O)CC4)C(F)(F)F)cc3)c([C@@H]3CCOC3)c2n1 [CPD0074040] | 7.48
14 | CN(C(=O)[C@H]1CS(=O)(=O)CC12COC2)[C@@H](c1ccc(N2CCCc3c2cnc2cc(Cl)nn32)cc1)C(F)(F)F [CPD0073975, (8rel-S)-N-[(1S)-1-(4-{4-chloro-2,3,7,10-tetraazatricyclo[7.4.0.0^2,6]trideca-1(9),3,5,7-tetraen-10-yl}phenyl)-2,2,2-trifluoroethyl]-N-methyl-6,6-dioxo-2-oxa-6λ^6-thiaspiro[3.4]octane-8-carboxamide] | 6.47
15 | COc1ccc2ncc(Nc3ccc([C@H](N(C)C(=O)C4CCS(=O)(=O)CC4)C(F)(F)F)cc3)c([C@H]3CCCO3)c2n1 (relative stereo) [CPD0074043, N-methyl-1,1-dioxo-N-[(1S)-2,2,2-trifluoro-1-[4-[6-methoxy-4-[(2 rel-R)-tetrahydrofuran-2-yl]-1,5-naphthyridin-3-yl]amino]phenyl]ethyl]thiane-4-carboxamide] | 7.10
16 | O=C(CC1CS(=O)(=O)C1)N[C@@H](c1ccc(N2CCCc3c2cnc2cc(Cl)nn32)cc1)C(F)(F)F [CPD0073535] | 5.68
17 | COc1ccc2ncc(Nc3ccc([C@H](N(C)C(=O)C4CCS(=O)(=O)CC4)C(F)(F)F)cn3)c(C(C)OC)c2n1 (stereo partly shown) [CPD0019007] | 6.94
18 | CN(C(=O)[C@H]1CCN(C(=O)CC#N)C1)[C@@H](c1ccc(N2CCCc3c2cnc2cc(Cl)nn32)cc1)C(F)(F)F [CPD0073191, (3rel-S)-N-[(1S)-1-[4-(4-chloro-2,3,7,10-tetrazatricyclo[7.4.0.0^2,6]trideca-1(9),3,5,7-tetraen-10-yl)phenyl]-2,2,2-trifluoro-ethyl]-1-(2-cyanoacetyl)-N-methyl-pyrrolidine-3-carboxamide] | 6.83
19 | COc1ccc2ncc(Nc3ccc([C@H](N(C)C(=O)[C@H]4CNC(=O)C4)C(F)(F)F)cc3)c([C@H](C)OC)c2n1 (relative stereo) [CPD0074562, (3 rel R)-N-methyl-5-oxo-N-[(1S)-2,2,2-trifluoro-1-[4-[[6-methoxy-4-[(1 rel S)-1-methoxyethyl]-1,5-naphthyridin-3-yl]amino]phenyl]ethyl]pyrrolidine-3-carboxamide] | 7.17

Source: patent US20250051327A1, “MALT-1 MODULATORS” (EXSCIENTIA AI LIMITED, priority 2020, published 2025)
